# Data taken from ChEMBL document CHEMBL4392848, “Proline-based hydroxamates targeting the zinc-dependent deacetylase LpxC: Synthesis, antibacterial properties, and docking studies” (Bioorg Med Chem, 2019).
# What was measured:
# Proteus vulgaris = test: Antibacterial activity against Proteus vulgaris assessed as diameter of inhibition zone measured after 24 hrs by agar disc diffusion method; format: functional; also: test concentration or dose not given here
# Enterobacter cloacae = test: Antibacterial activity against Enterobacter cloacae assessed as diameter of inhibition zone measured after 24 hrs by agar disc diffusion method; format: functional; also: test concentration or dose not given here
# Klebsiella oxytoca = test: Antibacterial activity against Klebsiella oxytoca assessed as diameter of inhibition zone measured after 24 hrs by agar disc diffusion method; format: functional; also: test concentration or dose not given here
# Escherichia coli [1] = test: Antibacterial activity against Escherichia coli D22 measured after 20 hrs by microdilution method; format: functional; details: D22, 20 h
# Klebsiella aerogenes = test: Antibacterial activity against Enterobacter aerogenes assessed as diameter of inhibition zone measured after 24 hrs by agar disc diffusion method; format: functional; also: test concentration or dose not given here
# Escherichia coli [2] = test: Antibacterial activity against Escherichia coli D22 assessed as diameter of inhibition zone measured after overnight incubation by agar disc diffusion method; format: functional; also: test concentration or dose not given here
# Escherichia coli [3] = test: Antibacterial activity against Escherichia coli BL21(DE3) measured after 20 hrs by microdilution method; format: functional
# Klebsiella pneumoniae = test: Antibacterial activity against Klebsiella pneumoniae assessed as diameter of inhibition zone measured after 24 hrs by agar disc diffusion method; format: functional; also: test concentration or dose not given here
# Proteus mirabilis = test: Antibacterial activity against Proteus mirabilis assessed as diameter of inhibition zone measured after 24 hrs by agar disc diffusion method; format: functional; also: test concentration or dose not given here
# [4] = Inhibition of Escherichia coli LpxC C63A mutant using UDP-3-O-[(R)-3-hydroxymyristoyl]-N-acetylglucosamine as substrate measured after 30 mins by fluorescence based microplate assay
# Escherichia coli [5] = test: Antibacterial activity against Escherichia coli BL21(DE3) assessed as diameter of inhibition zone measured after overnight incubation by agar disc diffusion method; format: functional; also: test concentration or dose not given here
# Citrobacter freundii = test: Antibacterial activity against Citrobacter freundii assessed as diameter of inhibition zone measured after 24 hrs by agar disc diffusion method; format: functional; also: test concentration or dose not given here
# Pseudomonas aeruginosa = test: Antibacterial activity against Pseudomonas aeruginosa assessed as diameter of inhibition zone measured after 24 hrs by agar disc diffusion method; format: functional; also: test concentration or dose not given here
# [6] = target: Matrix metalloproteinase-9 (Homo sapiens, UniProt P14780); test: Inhibition of human MMP9 using (7-methoxycoumarin-4-yl)acetyl-Pro-Leu-Gly-Leu-(3-(2,4-dinitrophenyl)-L-2,3-diamino-propionyl)Ala-Arg-NH2 as substrate preincubated for 30 mins followed by substrate addition and measured by fluorescence assay
# Sequence of Matrix metalloproteinase-9 (P14780 whole entry): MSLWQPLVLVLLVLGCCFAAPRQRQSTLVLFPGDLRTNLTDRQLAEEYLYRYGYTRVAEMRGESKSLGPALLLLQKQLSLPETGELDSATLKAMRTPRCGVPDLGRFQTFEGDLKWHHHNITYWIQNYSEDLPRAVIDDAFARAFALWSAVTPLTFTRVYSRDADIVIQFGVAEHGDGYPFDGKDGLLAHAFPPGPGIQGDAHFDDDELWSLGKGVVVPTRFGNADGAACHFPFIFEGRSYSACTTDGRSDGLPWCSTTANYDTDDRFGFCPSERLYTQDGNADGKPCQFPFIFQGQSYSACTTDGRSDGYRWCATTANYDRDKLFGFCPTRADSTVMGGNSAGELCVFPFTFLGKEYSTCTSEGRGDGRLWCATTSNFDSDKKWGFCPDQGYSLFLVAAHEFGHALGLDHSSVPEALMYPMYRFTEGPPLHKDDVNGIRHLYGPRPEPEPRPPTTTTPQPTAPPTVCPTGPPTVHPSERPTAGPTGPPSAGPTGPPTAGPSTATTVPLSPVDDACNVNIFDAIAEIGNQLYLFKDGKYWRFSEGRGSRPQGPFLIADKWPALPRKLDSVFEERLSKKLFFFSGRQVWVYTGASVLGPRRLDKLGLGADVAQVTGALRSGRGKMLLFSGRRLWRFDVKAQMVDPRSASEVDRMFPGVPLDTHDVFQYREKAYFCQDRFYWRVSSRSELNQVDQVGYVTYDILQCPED
# Collagenase 3 = Collagenase 3 (Homo sapiens, UniProt P45452); test: Inhibition of human MMP13 using (7-methoxycoumarin-4-yl)acetyl-Pro-Leu-Gly-Leu-(3-(2,4-dinitrophenyl)-L-2,3-diamino-propionyl)Ala-Arg-NH2 as substrate preincubated for 30 mins followed by substrate addition and measured by fluorescence assay
# [7] = target: 72 kDa type IV collagenase (Homo sapiens, UniProt P08253); test: Inhibition of human MMP2 using (7-methoxycoumarin-4-yl)acetyl-Pro-Leu-Gly-Leu-(3-(2,4-dinitrophenyl)-L-2,3-diamino-propionyl)Ala-Arg-NH2 as substrate preincubated for 30 mins followed by substrate addition and measured by fluorescence assay
# Sequence of 72 kDa type IV collagenase (P08253 whole entry): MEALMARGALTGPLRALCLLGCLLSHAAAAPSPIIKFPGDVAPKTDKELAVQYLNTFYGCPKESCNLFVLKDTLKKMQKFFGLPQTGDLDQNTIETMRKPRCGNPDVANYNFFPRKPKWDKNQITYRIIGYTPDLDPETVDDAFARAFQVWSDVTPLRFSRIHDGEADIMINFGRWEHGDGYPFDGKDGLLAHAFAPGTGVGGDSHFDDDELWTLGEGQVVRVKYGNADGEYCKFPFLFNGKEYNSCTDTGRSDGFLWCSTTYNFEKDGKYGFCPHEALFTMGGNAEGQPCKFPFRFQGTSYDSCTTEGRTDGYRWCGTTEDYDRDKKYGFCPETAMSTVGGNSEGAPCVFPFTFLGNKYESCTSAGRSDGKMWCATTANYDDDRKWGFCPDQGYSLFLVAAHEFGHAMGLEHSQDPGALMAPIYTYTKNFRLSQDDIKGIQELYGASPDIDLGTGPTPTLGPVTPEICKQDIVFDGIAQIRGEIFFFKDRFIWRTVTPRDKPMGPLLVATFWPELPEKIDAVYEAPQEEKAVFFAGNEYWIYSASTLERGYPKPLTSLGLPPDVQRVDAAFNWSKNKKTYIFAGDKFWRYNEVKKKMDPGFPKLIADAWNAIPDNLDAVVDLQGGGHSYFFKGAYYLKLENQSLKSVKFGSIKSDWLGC
# Neutrophil collagenase = Neutrophil collagenase (Homo sapiens, UniProt P22894); test: Inhibition of human MMP8 using (7-methoxycoumarin-4-yl)acetyl-Pro-Leu-Gly-Leu-(3-(2,4-dinitrophenyl)-L-2,3-diamino-propionyl)Ala-Arg-NH2 as substrate preincubated for 30 mins followed by substrate addition and measured by fluorescence assay
# Sequence of Neutrophil collagenase (P22894 whole entry): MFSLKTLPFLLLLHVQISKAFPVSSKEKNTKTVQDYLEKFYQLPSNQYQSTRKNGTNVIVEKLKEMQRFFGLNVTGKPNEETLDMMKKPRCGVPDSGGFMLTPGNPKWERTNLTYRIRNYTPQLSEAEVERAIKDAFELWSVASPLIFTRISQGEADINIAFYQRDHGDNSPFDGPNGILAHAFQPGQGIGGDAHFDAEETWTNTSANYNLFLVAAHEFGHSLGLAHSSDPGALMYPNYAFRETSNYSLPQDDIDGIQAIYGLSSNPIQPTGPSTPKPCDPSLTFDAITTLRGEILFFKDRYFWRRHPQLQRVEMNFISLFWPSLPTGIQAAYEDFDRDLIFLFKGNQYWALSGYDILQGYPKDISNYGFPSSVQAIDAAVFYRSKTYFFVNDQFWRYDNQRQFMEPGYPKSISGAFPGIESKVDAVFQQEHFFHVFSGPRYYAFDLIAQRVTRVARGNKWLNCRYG
smiles,measurement,setting,value
O=C(NO)[C@@H]1CCCN1C(=O)c1ccc(C#Cc2ccc(CN3CCS(=O)(=O)CC3)cc2)cc1,diameter of the inhibition zone (DIZ),Proteus vulgaris,10 mm
same,diameter of the inhibition zone (DIZ),Enterobacter cloacae,10 mm
same,diameter of the inhibition zone (DIZ),Klebsiella oxytoca,<6 mm
same,MIC,Escherichia coli [1],64 µM
same,diameter of the inhibition zone (DIZ),Klebsiella aerogenes,8 mm
same,diameter of the inhibition zone (DIZ),Escherichia coli [2],17 mm
same,MIC,Escherichia coli [3],> 256 µM
same,diameter of the inhibition zone (DIZ),Klebsiella pneumoniae,11 mm
same,diameter of the inhibition zone (DIZ),Proteus mirabilis,9 mm
same,IC50,[4],17.1 µM
same,Ki,[4],2.4 µM
same,diameter of the inhibition zone (DIZ),Escherichia coli [5],10.7 mm
same,diameter of the inhibition zone (DIZ),Citrobacter freundii,<6 mm
same,diameter of the inhibition zone (DIZ),Pseudomonas aeruginosa,<6 mm
O=C(NO)[C@@H]1C[C@H](O)CN1C(=O)c1ccc(C#Cc2ccc(OCCCCCF)cc2)cc1,MIC,Escherichia coli [1],> 256 µM
same,diameter of the inhibition zone (DIZ),Escherichia coli [2],<6 mm
same,IC50,[6],0.108 µM
same,MIC,Escherichia coli [3],> 256 µM
same,diameter of the inhibition zone (DIZ),Escherichia coli [5],<6 mm
same,IC50,Collagenase 3,0.07 nM
same,IC50,[7],0.005 µM
same,IC50,Neutrophil collagenase,0.021 µM
CC1(C)O[C@@H]2[C@@H](CN(C(=O)c3ccc(C#Cc4ccc(CN5CCOCC5)cc4)cc3)[C@H]2C(=O)NO)O1,diameter of the inhibition zone (DIZ),Proteus vulgaris,<6 mm
same,diameter of the inhibition zone (DIZ),Enterobacter cloacae,<6 mm
same,diameter of the inhibition zone (DIZ),Klebsiella oxytoca,8 mm
same,MIC,Escherichia coli [1],256 µM
same,diameter of the inhibition zone (DIZ),Klebsiella aerogenes,8 mm
same,diameter of the inhibition zone (DIZ),Escherichia coli [2],10 mm
same,IC50,[6],> 10 µM
same,MIC,Escherichia coli [3],> 256 µM
same,diameter of the inhibition zone (DIZ),Klebsiella pneumoniae,8 mm
same,diameter of the inhibition zone (DIZ),Proteus mirabilis,8 mm
same,IC50,[4],> 200 µM
same,Ki,[4],> 27.6 µM
same,diameter of the inhibition zone (DIZ),Escherichia coli [5],9 mm
same,IC50,Collagenase 3,> 10000 nM
same,diameter of the inhibition zone (DIZ),Citrobacter freundii,11 mm
same,diameter of the inhibition zone (DIZ),Pseudomonas aeruginosa,<6 mm
same,IC50,[7],3 µM
O=C(NO)[C@@H]1C[C@H](O)CN1C(=O)c1ccc(C#Cc2ccccc2)cc1,diameter of the inhibition zone (DIZ),Proteus vulgaris,7 mm
same,diameter of the inhibition zone (DIZ),Enterobacter cloacae,<6 mm
same,diameter of the inhibition zone (DIZ),Klebsiella oxytoca,7 mm
same,MIC,Escherichia coli [1],64 µM
same,diameter of the inhibition zone (DIZ),Klebsiella aerogenes,<6 mm
same,diameter of the inhibition zone (DIZ),Escherichia coli [2],14.3 mm
same,MIC,Escherichia coli [3],> 256 µM
same,diameter of the inhibition zone (DIZ),Klebsiella pneumoniae,<6 mm
same,diameter of the inhibition zone (DIZ),Proteus mirabilis,7 mm
same,IC50,[4],> 200 µM
same,Ki,[4],> 27.6 µM
same,diameter of the inhibition zone (DIZ),Escherichia coli [5],<6 mm
same,diameter of the inhibition zone (DIZ),Citrobacter freundii,7 mm
same,diameter of the inhibition zone (DIZ),Pseudomonas aeruginosa,<6 mm
O=C(NO)[C@@H]1CCCN1C(=O)c1ccc(C#Cc2ccc(CN3CCSCC3)cc2)cc1,diameter of the inhibition zone (DIZ),Proteus vulgaris,10 mm
same,diameter of the inhibition zone (DIZ),Enterobacter cloacae,14 mm
same,diameter of the inhibition zone (DIZ),Klebsiella oxytoca,11 mm
same,MIC,Escherichia coli [1],8 µM
same,diameter of the inhibition zone (DIZ),Klebsiella aerogenes,14 mm
same,diameter of the inhibition zone (DIZ),Escherichia coli [2],18 mm
same,MIC,Escherichia coli [3],128 µM
same,diameter of the inhibition zone (DIZ),Klebsiella pneumoniae,18 mm
same,diameter of the inhibition zone (DIZ),Proteus mirabilis,12 mm
same,IC50,[4],45.2 µM
same,Ki,[4],6.2 µM
same,diameter of the inhibition zone (DIZ),Escherichia coli [5],12.7 mm
same,diameter of the inhibition zone (DIZ),Citrobacter freundii,14 mm
same,diameter of the inhibition zone (DIZ),Pseudomonas aeruginosa,<6 mm
O=C(NO)[C@@H]1CCCN1Cc1ccc(C#Cc2ccc(CN3CCSCC3)cc2)cc1,diameter of the inhibition zone (DIZ),Proteus vulgaris,<6 mm
same,diameter of the inhibition zone (DIZ),Enterobacter cloacae,14 mm
same,diameter of the inhibition zone (DIZ),Klebsiella oxytoca,11 mm
same,MIC,Escherichia coli [1],1 µM
same,diameter of the inhibition zone (DIZ),Klebsiella aerogenes,13 mm
same,diameter of the inhibition zone (DIZ),Escherichia coli [2],17.7 mm
same,MIC,Escherichia coli [3],64 µM
same,diameter of the inhibition zone (DIZ),Klebsiella pneumoniae,14 mm
same,diameter of the inhibition zone (DIZ),Proteus mirabilis,8 mm
same,IC50,[4],8.1 µM
same,Ki,[4],1.1 µM
same,diameter of the inhibition zone (DIZ),Escherichia coli [5],10.7 mm
same,diameter of the inhibition zone (DIZ),Citrobacter freundii,13 mm
same,diameter of the inhibition zone (DIZ),Pseudomonas aeruginosa,<6 mm
O=C(NO)[C@@H]1CCCN1C(=O)c1ccc(C#Cc2ccc(CN3CCCCC3)cc2)cc1,diameter of the inhibition zone (DIZ),Proteus vulgaris,11 mm
same,diameter of the inhibition zone (DIZ),Enterobacter cloacae,10 mm
same,diameter of the inhibition zone (DIZ),Klebsiella oxytoca,9 mm
same,MIC,Escherichia coli [1],128 µM
same,diameter of the inhibition zone (DIZ),Klebsiella aerogenes,12 mm
same,diameter of the inhibition zone (DIZ),Escherichia coli [2],18.7 mm
same,MIC,Escherichia coli [3],> 256 µM
same,diameter of the inhibition zone (DIZ),Klebsiella pneumoniae,13 mm
same,diameter of the inhibition zone (DIZ),Proteus mirabilis,10 mm
same,IC50,[4],> 200 µM
same,Ki,[4],> 27.6 µM
same,diameter of the inhibition zone (DIZ),Escherichia coli [5],7 mm
same,diameter of the inhibition zone (DIZ),Citrobacter freundii,8 mm
same,diameter of the inhibition zone (DIZ),Pseudomonas aeruginosa,<6 mm
